What was measured:
Format in all cases: in vivo
Septoria tritici = test: Test A: wheat leaf blotch, preventive spray on wheat seedlings; conditions: Zymoseptoria tritici, 456 h, 100 = 100% disease control, 0 = no control, read-out: Test A disease control rating
Text: (§1) General protocol for preparing test suspensions for Tests A-F: the test compounds were first dissolved in acetone in an amount equal to 3% of the final volume and then suspended at the desired concentration (in ppm) in acetone and purified water (50/50 mix by volume) containing 250 ppm of the surfactant PEG400 (polyhydric alcohol esters). The resulting test suspensions were then used in Tests A-F.
(§2) The test solution was sprayed to the point of run-off on wheat seedlings. The following day the seedlings were inoculated with a spore suspension of Septoria tritici (the causal agent of wheat leaf blotch) and incubated in a saturated atmosphere at 24° C. for 48 h, and then moved to a growth chamber at 20° C. for 17 days, after which time disease ratings were made.
(§3) A rating of 100 indicates 100% disease control and a rating of 0 indicates no disease control (relative to the controls). A dash (−) indicates the compound was not tested.

[1] = system: Puccinia recondita f. sp. tritici; test: Test B: wheat leaf rust, preventive spray on wheat seedlings; conditions: 192 h, 100 = 100% disease control, 0 = no control, read-out: Test B disease control rating
Text: as §1
as §2, with “Puccinia recondita f. sp.” for “Septoria”, “rust)” for “blotch)”, “20°” for “24°”, “24” for “48”, “7” for “17”
as §3

Phakopsora pachyrhizi = test: Test D: Asian soybean rust, preventive spray on soybean seedlings; conditions: 216 h, 100 = 100% disease control, 0 = no control, read-out: Test D disease control rating
Text: as §1
The test solution was sprayed to the point of run-off on soybean seedlings. The following day the seedlings were inoculated with a spore suspension of Phakopsora pachyrhizi (the causal agent of Asian soybean rust) and incubated in a saturated atmosphere at 22° C. for 24 h and then moved to a growth chamber at 22° C. for 8 days, after which time visual disease ratings were made.
as §3

Botrytis cinerea = test: Test E: tomato Botrytis, preventive spray on tomato seedlings; conditions: 120 h, 100 = 100% disease control, 0 = no control, read-out: Test E disease control rating
Text: as §1
(§4) The test suspension was sprayed to the point of run-off on tomato seedlings. The following day the seedlings were inoculated with a spore suspension of Botrytis cinerea (the causal agent of tomato Botrytis) and incubated in a saturated atmosphere at 20° C. for 48 h, and then moved to a growth chamber at 24° C. for 3 days, after which time visual disease ratings were made.
as §3

Alternaria solani = test: Test F: tomato early blight, preventive spray on tomato seedlings; conditions: 120 h, 100 = 100% disease control, 0 = no control, read-out: Test F disease control rating
Text: as §1
as §4, with “Alternaria solani” for “Botrytis cinerea”, “early blight)” for “Botrytis)”, “27°” for “20°”, “20°” for “24°”
as §3

Q: What does the source list for `Cc1nn(C)c(Nc2c(F)cc(Cl)cc2[N+](=O)[O-])c1-c1ccc(F)cc1Cl` [Compound 121, N-(4-chloro-2-fluoro-6-nitrophenyl)-4-(2-chloro-4-fluorophenyl)-1,3-dimethyl-1H-pyrazol-5-amine]?
A: pest or weed control at 50 ppm (Septoria tritici): 100%; pest or weed control at 50 ppm [1]: 100%; pest or weed control at 50 ppm (Phakopsora pachyrhizi): 99%; pest or weed control at 50 ppm (Botrytis cinerea): 100%; pest or weed control at 50 ppm (Alternaria solani): 100%

Q: For `Cc1nn(C)c(Nc2ccc(F)cc2[N+](=O)[O-])c1-c1ccc(F)cc1Cl` [Compound 111, 4-(2-chloro-4-fluorophenyl)-N-(4-fluoro-2-nitrophenyl)-1,3-dimethyl-1H-pyrazol-5-amine], which pest or weed control at 50 ppm (Septoria tritici) is on record?
A: 100%

Q: And the pest or weed control at 50 ppm [1]?
A: 99%

Q: What about the pest or weed control at 50 ppm (Phakopsora pachyrhizi) of the same compound?
A: 0%

Q: And the pest or weed control at 50 ppm (Botrytis cinerea)?
A: 100%

Q: What about the pest or weed control at 50 ppm (Alternaria solani) of the same compound?
A: 93%

Q: `Cc1nn(C)c(N(C)c2c(F)cccc2[N+](=O)[O-])c1-c1ccc(F)cc1Cl` [Compound 172] was tested. Which pest or weed control at 50 ppm (Septoria tritici) did it give?
A: 100%

Q: And the pest or weed control at 50 ppm [1]?
A: 100%

Q: What about the pest or weed control at 50 ppm (Phakopsora pachyrhizi) of the same compound?
A: 0%

Q: And the pest or weed control at 50 ppm (Botrytis cinerea)?
A: 99%

Q: And the pest or weed control at 50 ppm (Alternaria solani)?
A: 40%

Q: What does the source list for `Cc1nn(C)c(Nc2c(F)cccc2[N+](=O)[O-])c1-c1ccc(F)cc1Br` [Compound 60, 4-(2-bromo-4-fluorophenyl)-N-(2-fluoro-6-nitrophenyl)-1,3-dimethyl-1H-pyrazol-5-amine]?
A: pest or weed control at 10 ppm (Septoria tritici): 99%; pest or weed control at 50 ppm (Septoria tritici): 100%; pest or weed control at 10 ppm [1]: 100%; pest or weed control at 50 ppm [1]: 100%; pest or weed control at 10 ppm (Phakopsora pachyrhizi): 0%; pest or weed control at 50 ppm (Phakopsora pachyrhizi): 97%; pest or weed control at 10 ppm (Botrytis cinerea): 99%; pest or weed control at 50 ppm (Botrytis cinerea): 99%; pest or weed control at 10 ppm (Alternaria solani): 75%; pest or weed control at 50 ppm (Alternaria solani): 99%

Q: How did the pest or weed control at 50 ppm (Septoria tritici) turn out when `COc1cc(F)c(Nc2c(-c3ccc(F)cc3F)c(C)nn2C)c([N+](=O)[O-])c1` [Compound 57, 4-(2,4-difluorophenyl)-N-(2-fluoro-4-methoxy-6-nitrophenyl)-1,3-dimethyl-1H-pyrazol-5-amine] was run?
A: 100%

Q: And the pest or weed control at 50 ppm [1]?
A: 100%

Q: What about the pest or weed control at 50 ppm (Phakopsora pachyrhizi) of the same compound?
A: 96%

Q: What about the pest or weed control at 50 ppm (Botrytis cinerea) of the same compound?
A: 100%

Q: What about the pest or weed control at 50 ppm (Alternaria solani) of the same compound?
A: 100%

Q: Which results are given for `Cc1nn(C)c(Nc2c(F)cccc2[N+](=O)[O-])c1-c1c(F)cc(F)cc1Cl` [Compound 68, 4-(2-chloro-4,6-difluorophenyl)-N-(2-fluoro-6-nitrophenyl)-1,3-dimethyl-1H-pyrazol-5-amine]?
A: pest or weed control at 10 ppm (Septoria tritici): 100%; pest or weed control at 50 ppm (Septoria tritici): 100%; pest or weed control at 10 ppm [1]: 100%; pest or weed control at 50 ppm [1]: 100%; pest or weed control at 10 ppm (Phakopsora pachyrhizi): 32%; pest or weed control at 50 ppm (Phakopsora pachyrhizi): 99%; pest or weed control at 10 ppm (Botrytis cinerea): 100%; pest or weed control at 50 ppm (Botrytis cinerea): 100%; pest or weed control at 10 ppm (Alternaria solani): 98%; pest or weed control at 50 ppm (Alternaria solani): 99%

Q: Which pest or weed control at 50 ppm (Septoria tritici) does the source give for `COc1cc(F)c(Nc2c(-c3c(F)cccc3Cl)c(C)nn2C)c([N+](=O)[O-])c1` [Compound 23, 4-(2-chloro-6-fluorophenyl)-N-(2-fluoro-4-methoxy-6-nitrophenyl)-1,3-dimethyl-1H-pyrazol-5-amine] here?
A: 100%

Q: What about the pest or weed control at 50 ppm [1] of the same compound?
A: 100%

Q: What about the pest or weed control at 50 ppm (Phakopsora pachyrhizi) of the same compound?
A: 99%

Q: And the pest or weed control at 50 ppm (Botrytis cinerea)?
A: 97%

Q: What about the pest or weed control at 50 ppm (Alternaria solani) of the same compound?
A: 99%

Q: Which pest or weed control at 50 ppm (Septoria tritici) does the source give for `Cc1nn(C)c(Nc2c(Cl)cc(F)cc2[N+](=O)[O-])c1-c1ccc(C#N)cc1Cl` [Compound 18, 3-chloro-4-[5-[(2-chloro-4-fluoro-6-nitrophenyl)amino]-1,3-dimethyl-1H-pyrazol-4-yl]benzonitrile] here?
A: 100%

Q: What about the pest or weed control at 50 ppm [1] of the same compound?
A: 100%

Q: What about the pest or weed control at 50 ppm (Phakopsora pachyrhizi) of the same compound?
A: 92%

Q: What about the pest or weed control at 50 ppm (Botrytis cinerea) of the same compound?
A: 100%

Q: What about the pest or weed control at 50 ppm (Alternaria solani) of the same compound?
A: 99%

Q: With `Cc1nn(C)c(Nc2c(F)cccc2[N+](=O)[O-])c1-c1c(F)cc(F)cc1Br` [Compound 1, 4-(2-bromo-4,6-difluorophenyl)-N-(2-fluoro-6-nitrophenyl)-1,3-dimethyl-1H-pyrazol-5-amine] as the compound, how does the pest or weed control at 50 ppm (Septoria tritici) read?
A: 100%

Q: And the pest or weed control at 50 ppm [1]?
A: 100%

Q: And the pest or weed control at 50 ppm (Phakopsora pachyrhizi)?
A: 84%

Q: And the pest or weed control at 50 ppm (Botrytis cinerea)?
A: 100%

Q: What about the pest or weed control at 50 ppm (Alternaria solani) of the same compound?
A: 99%

Q: `Cc1cc(F)c(Nc2c(-c3ccc(F)cc3Cl)c(C)nn2C)c([N+](=O)[O-])c1` [Compound 93, 4-(2-chloro-4-fluorophenyl)-N-(2-fluoro-4-methyl-6-nitrophenyl)-1,3-dimethyl-1H-pyrazol-5-amine] was tested. Which pest or weed control at 10 ppm (Septoria tritici) did it give?
A: 99%

Q: And the pest or weed control at 50 ppm (Septoria tritici)?
A: 100%

Q: And the pest or weed control at 10 ppm [1]?
A: 100%

Q: What about the pest or weed control at 50 ppm [1] of the same compound?
A: 100%

Q: And the pest or weed control at 10 ppm (Phakopsora pachyrhizi)?
A: 87%

Q: What about the pest or weed control at 50 ppm (Phakopsora pachyrhizi) of the same compound?
A: 100%

Q: And the pest or weed control at 10 ppm (Botrytis cinerea)?
A: 99%

Q: What about the pest or weed control at 50 ppm (Botrytis cinerea) of the same compound?
A: 100%

Q: What about the pest or weed control at 10 ppm (Alternaria solani) of the same compound?
A: 99%

Q: What about the pest or weed control at 50 ppm (Alternaria solani) of the same compound?
A: 99%

Q: Which pest or weed control at 10 ppm (Septoria tritici) does the source give for `Cc1nn(C)c(Nc2c(F)cccc2[N+](=O)[O-])c1-c1ccc(F)cc1F` [Compound 118, 4-(2,4-difluorophenyl)-N-(2-fluoro-6-nitrophenyl)-1,3-dimethyl-1H-pyrazol-5-amine] here?
A: 100%

Q: What about the pest or weed control at 50 ppm (Septoria tritici) of the same compound?
A: 100%

Q: What about the pest or weed control at 10 ppm [1] of the same compound?
A: 80%

Q: What about the pest or weed control at 50 ppm [1] of the same compound?
A: 100%

Q: And the pest or weed control at 10 ppm (Phakopsora pachyrhizi)?
A: 0%

Q: And the pest or weed control at 50 ppm (Phakopsora pachyrhizi)?
A: 0%

Q: What about the pest or weed control at 10 ppm (Botrytis cinerea) of the same compound?
A: 99%

Q: And the pest or weed control at 50 ppm (Botrytis cinerea)?
A: 100%

Q: What about the pest or weed control at 10 ppm (Alternaria solani) of the same compound?
A: 60%

Q: And the pest or weed control at 50 ppm (Alternaria solani)?
A: 99%

Q: Which pest or weed control at 50 ppm (Septoria tritici) does the source give for `Cc1nn(C)c(Nc2c(Cl)cc(F)cc2[N+](=O)[O-])c1-c1ccc(F)cc1Cl` [Compound 19, N-(2-chloro-4-fluoro-6-nitrophenyl)-4-(2-chloro-4-fluorophenyl)-1,3-dimethyl-1H-pyrazol-5-amine] here?
A: 100%

Q: What about the pest or weed control at 50 ppm [1] of the same compound?
A: 100%

Q: And the pest or weed control at 50 ppm (Phakopsora pachyrhizi)?
A: 98%

Q: What about the pest or weed control at 50 ppm (Botrytis cinerea) of the same compound?
A: 100%

Q: And the pest or weed control at 50 ppm (Alternaria solani)?
A: 99%

Q: For `Cc1nn(C)c(Nc2c(F)cccc2[N+](=O)[O-])c1-c1ccc(C#N)cc1Cl` [Compound 113, 3-chloro-4-[5-[(2-fluoro-6-nitrophenyl)amino]-1,3-dimethyl-1H-pyrazol-4-yl]benzonitrile], which pest or weed control at 50 ppm (Septoria tritici) is on record?
A: 100%

Q: And the pest or weed control at 50 ppm [1]?
A: 99%

Q: And the pest or weed control at 50 ppm (Phakopsora pachyrhizi)?
A: 13%

Q: What about the pest or weed control at 50 ppm (Botrytis cinerea) of the same compound?
A: 99%

Q: And the pest or weed control at 50 ppm (Alternaria solani)?
A: 99%

Q: `Cc1cc(F)c(Nc2c(-c3ccc(C#N)cc3Cl)c(C)nn2C)c([N+](=O)[O-])c1` [Compound 127, 3-chloro-4-[5-[(2-fluoro-4-methyl-6-nitrophenyl)amino]-1,3-dimethyl-1H-pyrazol-4-yl]benzonitrile] was tested. Which pest or weed control at 50 ppm (Septoria tritici) did it give?
A: 100%

Q: And the pest or weed control at 50 ppm [1]?
A: 99%

Q: And the pest or weed control at 50 ppm (Phakopsora pachyrhizi)?
A: 96%

Q: What about the pest or weed control at 50 ppm (Botrytis cinerea) of the same compound?
A: 100%

Q: What about the pest or weed control at 50 ppm (Alternaria solani) of the same compound?
A: 100%

Q: Which results are given for `COc1ccc(-c2c(C)nn(C)c2Nc2c(Cl)cc(F)cc2[N+](=O)[O-])c(Cl)c1` [Compound 73, N-(2-chloro-4-fluoro-6-nitrophenyl)-4-(2-chloro-4-methoxyphenyl)-1,3-dimethyl-1H-pyrazol-5-amine]?
A: pest or weed control at 50 ppm (Septoria tritici): 100%; pest or weed control at 50 ppm [1]: 100%; pest or weed control at 50 ppm (Phakopsora pachyrhizi): 98%; pest or weed control at 50 ppm (Botrytis cinerea): 99%; pest or weed control at 50 ppm (Alternaria solani): 97%

Q: Which results are given for `Cc1nn(C)c(Nc2c(F)cc(Br)cc2[N+](=O)[O-])c1-c1ccc(F)cc1Cl` [Compound 61, N-(4-bromo-2-fluoro-6-nitrophenyl)-4-(2-chloro-4-fluorophenyl)-1,3-dimethyl-1H-pyrazol-5-amine]?
A: pest or weed control at 50 ppm (Septoria tritici): 100%; pest or weed control at 50 ppm [1]: 100%; pest or weed control at 50 ppm (Phakopsora pachyrhizi): 84%; pest or weed control at 50 ppm (Botrytis cinerea): 99%; pest or weed control at 50 ppm (Alternaria solani): 99%
